From patent publication US9328122B2, “7-substituted Hanfangichin B derivative, and preparation method and use thereof” (HANGZHOU BENSHENG PHARMACEUTICAL CO., LTD., priority 2012, dated 2016)
Converted amounts (≈) assume the structure as drawn.

Key:
tumor = test: Antitumor activity compared with fangchinoline, overall statement; assay type: cell-based; details: tumor type not specified
[1] = test system: NB4 (acute promyelocytic leukemia) cells; test: MTT cell growth inhibition, leukemia cells; assay type: cell-based; details: Homo sapiens, NB4, 72 h, MTT; for IC50: read-out: IC50; for IC90: read-out: IC90
Method in brief: (§1)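 MTT read-out of viable cells after 72 h compound exposure at 37° C., 5% CO2; 6000 cells/well in RPMI-1640 + 10% FBS, dosed one day after seeding over a range of concentrations.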

[2] = test system: K562/ADR (K562adr, drug-resistant chronic myeloid leukemia) cells; test: MTT cell growth inhibition, leukemia cells; assay type: cell-based; details: Homo sapiens, K562/ADR, 72 h, MTT; for IC50: read-out: IC50; for IC90: read-out: IC90
Method in brief: as §1

[3] = test system: PC-3 (prostate cancer) cells; test: MTT cell growth inhibition, solid tumor cells; assay type: cell-based, human; details: Homo sapiens, PC-3, 72 h, MTT; for IC50: read-out: IC50; for IC90: read-out: IC90
Method in brief: (§2)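 Seeding: 6000 cells/well, DMEM high glucose + 10% FBS, 24 h, 37 °C/5% CO2. Compound at graded concentrations, 72 h. Readout MTT (viable cells).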

[4] = test system: PANC-1 (pancreatic cancer) cells; test: MTT cell growth inhibition, solid tumor cells; assay type: cell-based, human; details: for IC50 / IC90: Homo sapiens, PANC-1, 72 h, MTT; for IC50: read-out: IC50; for IC90: read-out: IC90
Method in brief: as §2

[5] = test system: CNE (nasopharyngeal carcinoma) cells; test: MTT cell growth inhibition, solid tumor cells; assay type: cell-based, human; details: for IC50 / IC90: Homo sapiens, CNE, 72 h, MTT; for IC50: read-out: IC50; for IC90: read-out: IC90
Method in brief: as §2

[6] = test system: SK-OV-3 (ovarian cancer) cells; test: MTT cell growth inhibition, solid tumor cells; assay type: cell-based, human; details: Homo sapiens, SK-OV-3, 72 h, MTT; for IC50: read-out: IC50; for IC90: read-out: IC90
Method in brief: as §2

[7] = test system: CaEs-17 (esophageal cancer) cells; test: MTT cell growth inhibition, solid tumor cells; assay type: cell-based, human; details: for IC50 / IC90: Homo sapiens, CaEs17, CaEs-17, 72 h, MTT; for IC50: read-out: IC50; for IC90: read-out: IC90
Method in brief: as §2

[8] = test system: Jurkat (acute lymphoblastic leukemia) cells; test: MTT cell growth inhibition, leukemia cells; assay type: cell-based, human; details: Homo sapiens, Jurkat, 72 h, MTT; for IC50: read-out: IC50; for IC90: read-out: IC90
Method in brief: as §1

[9] = test system: Kasumi-1 (acute myeloid leukemia M2 type) cells; test: MTT cell growth inhibition, leukemia cells; assay type: cell-based, human; details: Homo sapiens, Kasumi-1, 72 h, MTT; for IC50: read-out: IC50; for IC90: read-out: IC90
Method in brief: as §1

[10] = test system: H9 (acute lymphoblastic leukemia) cells; test: MTT cell growth inhibition, leukemia cells; assay type: cell-based, human; details: Homo sapiens, H9, 72 h, MTT; for IC50: read-out: IC50; for IC90: read-out: IC90
Method in brief: as §1

[11] = test system: Hela (human cervical cancer) cells; test: MTT cell growth inhibition, solid tumor cells; assay type: cell-based; details: Homo sapiens, Hela, 72 h, MTT; for IC50: read-out: IC50; for IC90: read-out: IC90
Method in brief: as §2

[12] = test system: Hep G2 (human liver cancer) cells; test: MTT cell growth inhibition, solid tumor cells; assay type: cell-based; details: for IC50 / IC90: Homo sapiens, HepG2, Hep G2, 72 h, MTT; for IC50: read-out: IC50; for IC90: read-out: IC90
Method in brief: as §2

[13] = test system: A549 (human lung cancer) cells; test: MTT cell growth inhibition, solid tumor cells; assay type: cell-based; details: Homo sapiens, A549, 72 h, MTT; for IC50: read-out: IC50; for IC90: read-out: IC90
Method in brief: as §2

[14] = test system: MGC-803 (human gastric cancer) cells; test: MTT cell growth inhibition, solid tumor cells; assay type: cell-based; details: MGC-803, 72 h, MTT; for IC50: read-out: IC50; for IC90: read-out: IC90
Method in brief: as §2

[15] = test system: Becap-37 (human breast cancer) cells; test: MTT cell growth inhibition, solid tumor cells; assay type: cell-based; details: for IC50 / IC90: Homo sapiens, Becap-37, 72 h, MTT; for IC50: read-out: IC50; for IC90: read-out: IC90
Method in brief: as §2

[16] = test system: RKO (human colon adenocarcinoma) cells; test: MTT cell growth inhibition, solid tumor cells; assay type: cell-based; details: Homo sapiens, RKO, 72 h, MTT; for IC50: read-out: IC50; for IC90: read-out: IC90
Method in brief: as §2

[17] = test system: U87-MG (malignant glioma) cells; test: MTT cell growth inhibition, solid tumor cells; assay type: cell-based; details: Homo sapiens, U-87 MG, U87-MG, 72 h, MTT; for IC50: read-out: IC50; for IC90: read-out: IC90
Method in brief: as §2

[18] = test system: MG-63 (osteosarcoma) cells; test: MTT cell growth inhibition, solid tumor cells; assay type: cell-based; details: Homo sapiens, MG-63, 72 h, MTT; for IC50: read-out: IC50; for IC90: read-out: IC90
Method in brief: as §2

[19] = test system: Hep-2 (laryngeal carcinoma) cells; test: MTT cell growth inhibition, solid tumor cells; assay type: cell-based; details: Homo sapiens, Hep-2, 72 h, MTT; for IC50: read-out: IC50; for IC90: read-out: IC90
Method in brief: as §2

[20] = relative to fangchinoline, Table 2

C=CCOc1c(OC)cc2c3c1Oc1cc4c(cc1OC)CCN(C)[C@H]4Cc1ccc(cc1)Oc1cc(ccc1OC)C[C@@H]3N(C)CC2 [BS-FC-213]
antitumor activity compared with that of fangchinoline (tumor): significantly superior
IC50 [1]: 0.66 µg/mL (≈ 1.02 µM)
IC90 [1]: 2.32 µg/mL (≈ 3.58 µM)
IC50 [2]: 0.38 µg/mL (≈ 0.586 µM)
IC90 [2]: 1.72 µg/mL (≈ 2.65 µM)
IC50 [3]: 3.24 µg/mL (≈ 4.99 µM)
IC90 [3]: 7.37 µg/mL (≈ 11.4 µM)
IC50 [4]: 3.46 µg/mL (≈ 5.33 µM)
IC90 [4]: 10.4 µg/mL (≈ 16 µM)
IC50 [5]: 2.7 µg/mL (≈ 4.16 µM)
IC90 [5]: 5.6 µg/mL (≈ 8.63 µM)
IC50 [6]: 5 µg/mL (≈ 7.71 µM)
IC90 [6]: 11.8 µg/mL (≈ 18.2 µM)
IC50 [7]: 1.68 µg/mL (≈ 2.59 µM)
IC90 [7]: 9.16 µg/mL (≈ 14.1 µM)
IC50 [8]: 0.64 µg/mL (≈ 0.986 µM)
IC90 [8]: 3.29 µg/mL (≈ 5.07 µM)
IC50 [9]: 0.93 µg/mL (≈ 1.43 µM)
IC90 [9]: 3.66 µg/mL (≈ 5.64 µM)
IC50 [10]: 2.2 µg/mL (≈ 3.39 µM)
IC90 [10]: 4 µg/mL (≈ 6.17 µM)
IC50 [11]: 1.68 µg/mL (≈ 2.59 µM)
IC90 [11]: 3.89 µg/mL (≈ 6 µM)
IC50 [12]: 2.12 µg/mL (≈ 3.27 µM)
IC90 [12]: 5.92 µg/mL (≈ 9.12 µM)
IC50 [13]: 2.19 µg/mL (≈ 3.38 µM)
IC90 [13]: 4.92 µg/mL (≈ 7.58 µM)
IC50 [14]: 1.49 µg/mL (≈ 2.3 µM)
IC90 [14]: 6.02 µg/mL (≈ 9.28 µM)
IC50 [15]: 2.54 µg/mL (≈ 3.91 µM)
IC90 [15]: 5.29 µg/mL (≈ 8.15 µM)
IC50 [16]: 1.58 µg/mL (≈ 2.44 µM)
IC90 [16]: 3.46 µg/mL (≈ 5.33 µM)
IC50 [17]: 1.85 µg/mL (≈ 2.85 µM)
IC90 [17]: 9.23 µg/mL (≈ 14.2 µM)
IC50 [18]: 2.4 µg/mL (≈ 3.7 µM)
IC90 [18]: 3.8 µg/mL (≈ 5.86 µM)
IC50 [19]: 3.63 µg/mL (≈ 5.59 µM)
IC90 [19]: 9.9 µg/mL (≈ 15.3 µM)

COc1ccc2cc1Oc1ccc(cc1)C[C@H]1c3cc(c(OC)cc3CCN1C)Oc1c(OCC(O)CNCC3CC3)c(OC)cc3c1[C@H](C2)N(C)CC3 (some centres unmarked) [BS-FC-405]
antitumor activity compared with that of fangchinoline (tumor): significantly superior
IC50 [1]: 0.47 µg/mL (≈ 0.639 µM)
IC90 [1]: 0.95 µg/mL (≈ 1.29 µM)
IC50 [2]: 0.6 µg/mL (≈ 0.815 µM)
IC90 [2]: 1.73 µg/mL (≈ 2.35 µM)
IC50 [3]: 2.53 µg/mL (≈ 3.44 µM)
IC90 [3]: 3.69 µg/mL (≈ 5.01 µM)
IC50 [4]: 1.14 µg/mL (≈ 1.55 µM)
IC90 [4]: 3.34 µg/mL (≈ 4.54 µM)
anti-PANC-1 activity increase over fangchinoline [4, 20]: ~3 fold
IC50 [5]: 0.8 µg/mL (≈ 1.09 µM)
IC90 [5]: 1.7 µg/mL (≈ 2.31 µM)
anti-CNE activity increase over fangchinoline [5, 20]: ~3 fold
IC50 [6]: 1.54 µg/mL (≈ 2.09 µM)
IC90 [6]: 3.5 µg/mL (≈ 4.76 µM)
IC50 [7]: 0.49 µg/mL (≈ 0.666 µM)
IC90 [7]: 1.95 µg/mL (≈ 2.65 µM)
anti-CaEs-17 activity increase over fangchinoline [7, 20]: ~4 fold
IC50 [8]: 0.56 µg/mL (≈ 0.761 µM)
IC90 [8]: 0.99 µg/mL (≈ 1.35 µM)
IC50 [9]: 0.76 µg/mL (≈ 1.03 µM)
IC90 [9]: 1.75 µg/mL (≈ 2.38 µM)
IC50 [10]: 1.45 µg/mL (≈ 1.97 µM)
IC90 [10]: 2.9 µg/mL (≈ 3.94 µM)
IC50 [11]: 1.25 µg/mL (≈ 1.7 µM)
IC90 [11]: 2 µg/mL (≈ 2.72 µM)
IC50 [12]: 0.71 µg/mL (≈ 0.965 µM)
IC90 [12]: 1.7 µg/mL (≈ 2.31 µM)
anti-Hep G2 activity increase over fangchinoline [12, 20]: ~3 fold
IC50 [13]: 1.94 µg/mL (≈ 2.64 µM)
IC90 [13]: 5.89 µg/mL (≈ 8 µM)
IC50 [14]: 0.88 µg/mL (≈ 1.2 µM)
IC90 [14]: 3.59 µg/mL (≈ 4.88 µM)
IC50 [15]: 0.74 µg/mL (≈ 1.01 µM)
IC90 [15]: 1.88 µg/mL (≈ 2.55 µM)
anti-Becap37 activity increase over fangchinoline [15, 20]: ~3 fold
IC50 [16]: 0.46 µg/mL (≈ 0.625 µM)
IC90 [16]: 0.92 µg/mL (≈ 1.25 µM)
IC50 [17]: 0.7 µg/mL (≈ 0.951 µM)
IC90 [17]: 1.41 µg/mL (≈ 1.92 µM)
IC50 [18]: 0.96 µg/mL (≈ 1.3 µM)
IC90 [18]: 1.7 µg/mL (≈ 2.31 µM)
IC50 [19]: 1.67 µg/mL (≈ 2.27 µM)
IC90 [19]: 4.81 µg/mL (≈ 6.54 µM)
